Results reported in patent US20020199220A1, “Methods to propagate plants via somatic embryogenesis and to transfer genes into ornamental statice and other members of the family plumbaginaceae” (priority 2001, published 2002).
“And” between values parts separate entries of the source, which are not always exact repeats. Equal values may be shown once.

Assays:
Format in all cases: cell-based
[1] = test system: L. bellidifolium cotyledon explants; experiment: Induction of embryogenic calli from cotyledon explants; settings: for Callus Description / % Response / Number of Explants responded/cultured: MS medium with 1 mg/l 2,4-D, 0.1 mg/l kinetin; for Callus Description / % Response: 30 days after culture; for % Response: mean of experiments; for Number of Explants responded/cultured: scored 30 days after culture, Exp.1 to 3
Protocol: (§1) Seeds of perennial statice Limoniurn bellidifolium (Gouan) Durmort.(Statice caspia Willd.) and annual statice Linonium sinuatum (L.) Mill. Cv. Soiree, and other Limonium species were purchased from Park Seed Co. (Greenwood, S.C., U.S.A.). Seeds were surface-sterilized by rinsing in 70% (v/v) ethanol for 30 seconds and in 10% (v/v) commercial bleach for 10 minutes. Following this treatment, they were washed five times in sterile distilled water and germinated under light on half-strength Murashige and Skoog basal medium (MS, Murashige and Skoog, 1962) containing 1.5% (wt./v) sucrose and 0.8% (wt./v) agar (Agar-agar, Sigma, St. Louis, Mo., U.S.A.). The pH was adjusted to 5.8 prior to autoclaving for 5 days to provide the explants.
(§2) Cotyledon and hypocotyl explants were dissected from 5-day old seedlings. The hypocotyls were cut 1 mm below the cotyledonary node and 1 mm above the hypocotyl-root junction to provide 2 mm-long explants. The cotyledons were separated from the cotyledon-petiole junction and halved into 2 to 3 mm long pieces. The explants were cultured, 10 per 100×15 mm Petri plate, on MS medium containing MS mineral salts, B5 vitamins (Gamborg et al. 1968), sucrose (2, 3 or 4% wt./v), 0.1 mg.l^−1 kinetin and 1, 2 or 5 mg.l^−1 2,4-D, pH 5.8. The plates were sealed with parafilm (American National Can, WI) and incubated at 25° C. under 16/8 h (day/night) light regime (PPFD 46 μmol.quanta.m^−2.s^−1, cool white fluorescent lamps). The explants were subcultured every two weeks on the same media.
(§3) Cotyledon explants from L. bellidifolium and L. sinuatum initiated callus within 7-10 days in culture on media containing 1 mg.l^−1 2,4-D and various levels of sucrose. Embryogenic callus was characterized by globular structures, smooth and shiny texture and creamy color. On media containing 1 mg.l^−1 2,4-D and 0.1 mg.l^−1 kinetin, increasing sucrose concentrations increased the induction of well developed embryogenic calli, 4% sucrose being the optimum (see the following Table 1). Some of the cotyledon explants respond with direct somatic embryogenesis without a callus phase. The embryogenic calli produced repetitive globular embryos on the same induction media for both species. Medium containing 4% sucrose was also optimum to induce embryogenic calli from hypocotyl explants (79% response for 28 explants cultured for L. bellidifolium and 86% response for 21 explants cultured for L. sinuatum). On an average, 2-3 somatic embryos developed per explant weekly. At 2% sucrose, friable non-embryogenic callus grew along with less defined embryogenic calli on the same explant.

[2] = test system: L. sinuatum cotyledon explants; experiment: as above; settings: for Callus Description / % Response / Number of Explants responded/cultured: MS medium with 1 mg/l 2,4-D, 0.1 mg/l kinetin; for Callus Description / % Response: 30 days after culture; for % Response: mean of experiments; for Number of Explants responded/cultured: scored 30 days after culture, Exp.1 to 3
Protocol: as §1, §2, §3

[3] = test system: L. bellidifolium hypocotyl explants; experiment: Induction of embryogenic calli from hypocotyl explants; settings: medium containing 4% sucrose; 28 explants cultured
Protocol: as §2
(§4) Cotyledon explants from L. bellidifolium and L. sinuatum initiated callus within 7-10 days in culture on media containing 1 mg.l^−1 2,4-D and various levels of sucrose. Embryogenic callus was characterized by globular structures, smooth and shiny texture and creamy color. On media containing 1 mg.l^−1 2,4-D and 0.1 mg.l^−1 kinetin, increasing sucrose concentrations increased the induction of well developed embryogenic calli, 4% sucrose being the optimum (see the following Table 1). Some of the cotyledon explants respond with direct somatic embryogenesis without a callus phase. […]

[4] = test system: L. sinuatum hypocotyl explants; experiment: as above; settings: medium containing 4% sucrose; 21 explants cultured
Protocol: as §2, §4

[5] = test system: somatic embryos from embryogenic calli derived from L. bellidifolium and L. sinuatum cotyledon and hypocotyl explants; experiment: Maturation and germination of somatic embryos from cultured embryogenic calli; parameters: key to Germination: − = No response; + slow (21-30 days); ++ medium (15-20 days); ++++- Fast (14 days) with 100% maturation and germination; settings: for somatic embryo morphology: no growth regulators; for Germination / Maturation: MS medium
Protocol: For maturation, somatic embryos at late-globular, heart and torpedo stages were subcultured on MS media containing 3% or 4% (wt./v) sucrose with or without 0.1 mg.l^−1 kinetin. Calli differentiating globular embryos were transferred to maturation medium, MS supplemented with 3 or 4% sucrose and 0 or 0.1 mg.l^−1 kinetin. Late globular, heart, torpedo and cotyledonary stages differentiated in these media and with faster and higher response on media with 4% sucrose compared to that on 3% sucrose (see Table 2).
Supplementation of this medium with 0.1 mg/l kinetin induced embryo maturation and germination within 10 to 14 days of subculture compared to more than 21 days on media lacking kinetin.

[6] = media containing 1 mg/l 2,4-D and various levels of sucrose

Question: Which results are given for `O=C(O)COc1ccc(Cl)cc1Cl` [2,4-D, reference compound]?
Answer: time to callus initiation in culture [1, 6]: 7 to 10 days; time to callus initiation in culture [2, 6]: 7 to 10 days

Question: Which “Callus Description” value ([1]; 2% sucrose) does the source give for `OC[C@H]1O[C@@](CO)(O[C@H]2O[C@H](CO)[C@@H](O)[C@H](O)[C@H]2O)[C@@H](O)[C@@H]1O` [sucrose] here?
Answer: The value was “W,E,F”.

Question: And the “% Response” value ([1]; 2% sucrose)?
Answer: The value was 75%.

Question: And the “Number of Explants responded/cultured” value ([1]; 2% sucrose)?
Answer: The value was 15/24 and 23/28 and 53/67.

Question: What about the “Callus Description” value ([1]; 3% sucrose) of the same molecule?
Answer: The value was “W/G,E(g,t)”.

Question: And the “% Response” value ([1]; 3% sucrose)?
Answer: The value was 79%.

Question: And the “Number of Explants responded/cultured” value ([1]; 3% sucrose)?
Answer: Its value is 46/58 and 53/62 and 48/68.

Question: And the “Callus Description” value ([1]; 4% sucrose)?
Answer: The value was “W/G,E(g,h,t)”.

Question: What about the “% Response” value ([1]; 4% sucrose) of the same molecule?
Answer: The value was 89%.

Question: What about the “Number of Explants responded/cultured” value ([1]; 4% sucrose) of the same molecule?
Answer: Its value is 29/32 and 1/26 and 39/41.

Question: And the “Callus Description” value ([2]; 2% sucrose)?
Answer: The value was “W,E,F”.

Question: And the “% Response” value ([2]; 2% sucrose)?
Answer: Its value is 72%.

Question: And the “Number of Explants responded/cultured” value ([2]; 2% sucrose)?
Answer: The value was 12/19 and 38/44 and 13/20.

Question: What about the “Callus Description” value ([2]; 3% sucrose) of the same molecule?
Answer: The value was “W/G,B(g,t)”.

Question: What about the “% Response” value ([2]; 3% sucrose) of the same molecule?
Answer: Its value is 79%.

Question: And the “Number of Explants responded/cultured” value ([2]; 3% sucrose)?
Answer: Its value is 50/61 and 49/74 and 61/69.

Question: And the “Callus Description” value ([2]; 4% sucrose)?
Answer: Its value is “W/G,B(g,h,t)”.

Question: And the “% Response” value ([2]; 4% sucrose)?
Answer: The value was 88%.

Question: And the “Number of Explants responded/cultured” value ([2]; 4% sucrose)?
Answer: Its value is 42/48 and 32/39 and 37/40.

Question: What about the “response (induction of embryogenic calli)” value [3] of the same molecule?
Answer: Its value is 79%.

Question: What about the “response (induction of embryogenic calli)” value [4] of the same molecule?
Answer: The value was 86%.

Question: What about the somatic embryo morphology ([5]; 3% sucrose) of the same molecule?
Answer: Its somatic embryo morphology is “abnormally long roots with poor shoot development”.

Question: And the Germination ([5]; 3% sucrose, kinetin 0.0 mg/l)?
Answer: The Germination was “−”.

Question: What about the Maturation ([5]; 3% sucrose, kinetin 0.0 mg/l) of the same molecule?
Answer: Its Maturation is “+ (+ slow (21-30 days))”.

Question: And the Germination ([5]; 3% sucrose, kinetin 0.1 mg/l)?
Answer: The Germination was “++ (++ medium (15-20 days))”.

Question: And the Maturation ([5]; 3% sucrose, kinetin 0.1 mg/l)?
Answer: The Maturation was “++ (++ medium (15-20 days))”.

Question: And the Germination ([5]; 4% sucrose, kinetin 0.0 mg/l)?
Answer: The Germination was “+ (+ slow (21-30 days))”.

Question: What about the Maturation ([5]; 4% sucrose, kinetin 0.0 mg/l) of the same molecule?
Answer: Its Maturation is “++ (++ medium (15-20 days))”.

Question: What about the Germination ([5]; 4% sucrose, kinetin 0.1 mg/l) of the same molecule?
Answer: Its Germination is “++++ (++++- Fast (14 days) with 100% maturation and germination)”.

Question: And the Maturation ([5]; 4% sucrose, kinetin 0.1 mg/l)?
Answer: Its Maturation is “++++ (++++- Fast (14 days) with 100% maturation and germination)”.

Question: And the somatic embryo morphology ([5]; sucrose increased to 4%)?
Answer: The somatic embryo morphology was “inhibited this abnormal rooting”.
